Laboratory results published in paper PMC6145916, “Interaction of mitochondrial fission factor with dynamin related protein 1 governs physiological mitochondrial function in vivo” (Scientific Reports, 2018).
Where no end group is shown, it is not given here.

Experiments:
[1] = tested on: Drp1; assay: Mitochondrial Drp1 content in brain of wild-type mice; type: in vivo, mouse; settings: 3 mg/Kg/day, subcutaneous osmotic pump, 8-week treatment, WT mice; Drp1 relative to ALDH2; n = 4 mice
Description: (a) Quantification of mitochondrial Drp1 content relative to ALDH2 (a mitochondrial matrix enzyme) in the mitochondrial fraction isolated from total brain lysate of wild-type mice (Western blot shown in Fig. S3B) (n = 4 mice). (b) ATP content in brain tissue of wild-type mice (n = 4 mice, 2 replicates). (c) Representative transmission electron microscopy images of the striatum from wild-type mice. […] The first principal component represents 42% of the variation. (f) Local linear embedding dimensionality reduction and visualization of all behaviors collected weekly from TAT- (black) or P259- (purple) treated WT and TAT- (white) treated R6/2 mice over the course of 8 weeks. […] All behavior and survival tests were conducted by an experienced observer who was blinded to the treatment groups. Data are mean ± s.e.
Five-week old R6/2 HD mice and their wild-type littermates (a total of 60 mice) were implanted subcutaneously with a 28-d Alzet osmotic pump with either P259-TAT or TAT control peptide (15 mice per group) to be delivered continuously at a rate of 3 mg/Kg/day, as previously described. […]
The effect of peptides on GTPase activity of Drp1 was measured by incubating recombinant Drp1 […]
for 1 hour at 37 °C. GTPase activity was measured using a colorimetric GTPase assay kit (Novus Biologicals, CO, USA) as instructed by the manufacturer. […]

[2] = tested on: neuroblastoma SH-SY5Y cells; assay: Mitochondrial morphology (Tom20 immunofluorescence), SH-SY5Y; type: cell-based, human
Experimental: Represented Western blot is cropped from a full blot shown in the Expanded Western Blots section of the Supplementary Information. […] Hoechst 33342 is shown in blue and Tom20 in green (n = 3, 10 images each). Below, quantification of the form factor (degree of branching) and major axis length (length of mitochondria). At least 6,000 mitochondrial fragments were measured for each condition. Mitochondrial reactive oxygen species (ROS) production (MitoSox Red) (c) and mitochondrial membrane potential (TMRM) (d) after overnight treatment with indicated concentrations of peptide or FCCP. Data are from 3 independent experiments per condition normalized to the average no peptide value. (e) Relative mitochondrial ROS (MitoSox Red) signal in GFP positive cells expressing full-length or alanine-substituted P259 at indicated amino acids after two days of transfection. Values are normalized to a GFP empty vector (n = 3, with 3 replicates). […] Data are mean ± s.e. […]
Cells were fixed onto Permanox plastic slides with 4% paraformaldehyde in PBS for 10 minutes at room temperature. Cells were permeabilized in 0.1% Triton X-100 and 1% normal goat serum (blocking buffer) for one hour at room temperature. Permeabilized cells were incubated overnight with primary anti-Tom20 antibody (Santa Cruze Biotech, sc-11415, 1:250 dilution) in a humidified chamber. Slides were subsequently incubated with FITC-conjugated goat anti-rabbit IgG for two hours at room temperature in a light-shielding humidified chamber. Cells were washed with blocking buffer and stained with Hoechst 33342 (Invitrogen, OR, USA, […]). Coverslips were mounted with a Slowfade antifade solution (Invitrogen, OR, USA). Images were acquired using an LSM 700 confocal laser-s canning microsc ope equipped with a Plan Apochromat 63x/1.4 NA oil-immersion objective (Zeiss).
Mitochondrial morphology analysis
High-throughput image analysis of mitochondrial morphology was performed using MATLAB with the Image Processing toolkit. Background illumination, obtained by morphological opening of the image, was subtracted from the original image. The image was then passed through a top - hat transformation to highlight objects from the background followed by a pixel-wis e adaptive low-pas s Wiener filter to remove noise. A 90th percentile threshold was used to convert the image to a binary image. Erroneously large and small objects were removed from the image and morphological features were extracted from the binary objects. Major axis length is defined as th e length of the longest line that can be drawn through a binary object while the minor axis length is defined as the length of the shortest line. The aspect ratio is defined by the major axis length divided by the minor axis length. […]

[3] = 4 µM TAT-P259, 30-minute treatment, vs TAT, n = 3

With “YGRKKRRQRRRGSGIIQLPEIVVV-NH2 (C-terminus assumed) [P259]” the “reduction of mitochondrial Drp1 association (brain)” value [1] was ~ 80%, the “form factor (degree of branching)” value [2, 3] was “higher form factors” and the major axis length [2, 3] was “increased major axis lengths”. For the same substance, the mitochondrial morphology ([2]; 4 µM TAT-P259 or 10 µM Mdivi-1, 30-minute treatment, n = 3, 10 images each) was “more elongated and branched mitochondria”.
